From patent US20260097022A1, “COMPOUNDS AND USES THEREOF” (Integrated Biosciences, Inc., priority 2023, published 2026)

Columns and labels:
[1] = tested on: HepG2 cells; assay: Cytotoxicity against HepG2 cells (resazurin); format: cell-based, human; settings: 3 days treatment, curve-fitting, two biological replicates
Method: Measuring cytotoxicity against HepG2 and HEK293 cells. Cytotoxicity in human embryonic kidney (HEK293) and liver carcinoma (HepG2) cells was assayed as above using a resazurin assay. Cells were obtained from ATCC (ATCC CRL-1573 and HB-8065), passaged <10 times, and grown in Dulbecco's modification of Eagle's Medium (DMEM: Corning 10^−013-CV) supplemented with 10% FBS and 1% penicillin-streptomycin. 99 μL of cells were plated into each well of a 96-well clear flat-bottom, black polystyrene tissue-culture-treated plate at a density of ˜10+ cells/well, and plates were incubated overnight for adhesion. The day after plating. 1 μL of each compound, prepared as two-fold serial dilutions of 5 mM stock solutions in DMSO, was added to each well. Cells were incubated for 3 days, after which resazurin was added to each well to a final concentration of 0.15 mM. After an additional 1 day of incubation, the fluorescence excitation/emission at 550/590 nm was read using a SpectraMax M3 plate reader. Experiments were performed in biological duplicate. IC50 values were determined by normalizing with respect to the fluorescence intensity values of untreated control cells on day 3, as described in Calculation of cellular viability values in dose-response curves above.

[2] = target: T1, Bcl-2 (Homo sapiens, UniProt P10415); assay: BCL-2 TR-FRET, inhibition of Bcl-2 binding to a peptide ligand; settings: at micromolar concentrations
T1 construct: purchased BPS Bioscience 50222
T1 sequence (P10415 whole entry): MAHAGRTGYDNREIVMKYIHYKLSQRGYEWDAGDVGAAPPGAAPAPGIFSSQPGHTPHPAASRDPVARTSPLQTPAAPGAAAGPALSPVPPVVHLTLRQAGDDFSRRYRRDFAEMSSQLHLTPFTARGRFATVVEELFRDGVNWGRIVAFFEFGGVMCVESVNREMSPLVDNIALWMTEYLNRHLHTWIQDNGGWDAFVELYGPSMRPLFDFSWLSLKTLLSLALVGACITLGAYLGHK
Method: BCL-2 TR-FRET. Inhibition of Bcl-2 binding to a peptide ligand was measured using the BCL-2 TR-FRET Assay Kit from BPS Bioscience (BPS Bioscience 50222). Briefly, the provided BCL TR-FRET assay buffer was diluted 1:3 with ultrapure Milli-Q water. The anti-His terbium-labeled donor and dye-labeled acceptor were each diluted 1:100 with diluted assay buffer. The BCL-2 peptide ligand was thawed on ice and diluted 1:40 with diluted assay buffer, and BCL-2 protein was diluted with diluted assay buffer to a working concentration of 1 ng/μL. Test compounds at the indicated final concentrations were prepared as stock 10% DMSO solutions in ultrapure Milli-Q water. The reaction was performed by combining 5 μL diluted donor. 5 μL diluted acceptor. 2 μL test compound. 5 μL diluted ligand, and 3 μL diluted protein in each well of the provided white, flat-bottom 384-well plate. Positive control reactions had 2 μL 10% DMSO in water in lieu of test compound. Negative control reactions had 2 μL 10% DMSO in water and 5 μL diluted assay buffer in lieu of test compound and diluted ligand. Reactions were incubated at room temperature for 3 hours, and fluorescent intensities were measured using a SpectraMax® M5 plate reader and manufacturer software (SoftMax Pro 6) with the following TR-FRET settings; for terbium-labeled donor emission, ex/em. 340/620 nm: lag time. 100 μs: integration time. 500 μs: for dye-acceptor emission, ex/em. 340/665 nm: lag time. 100 μs; integration time. 500 μs. The TR-FRET ratio. 665 nm emission/620 nm emission, was calculated for all reactions, and percentage activity was calculated by linearly interpolating the positive and negative control TR-FRET ratio values between relative activity values of 0) and 1. Experiments were performed in biological duplicate and repeated on independent occasions.

[3] = tested on: etoposide-treated IMR-90 cells; assay: Etoposide-induced senescence model, resazurin cell viability (screen and dose-response); format: cell-based, human; settings: for effect on Sncs and control cells versus DMSO: concentrations between 1.5 to 3 μM, 3 days
Procedure, shortened: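 IMR-90 fibroblasts made senescent with 50 μM etoposide for 2 days, then 4 days recovery before plating. Compounds at 10 μM or 1 μM final (screen) or three-fold dilutions (1% DMSO) for 3 days, then 0.15 mM resazurin 1 day, fluorescence 550/590 nm. Viability expressed as fraction of untreated controls; biological duplicates.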

[4] = ratio of IC50 values for vehicle- and etoposide-treated IMR-90 cells, 3 days treatment

Compound | IC50 ([1]; Homo sapiens, HepG2, 72 h) [µM] | inhibition of Bcl-2 binding activity to a peptide ligand [2] | effect on Sncs and control cells versus DMSO [3] | Therapeutic Index (TI) ([3]; etoposide-induced senescence model, ratio of IC50 values between etoposide- and DMSO-treated IMR-90 fibroblasts) | Therapeutic Index (TI) [3, 4] | IC50 [1] [µM]
Cc1ccccc1C(=O)Nc1ccc2nc(SCC(=O)Nc3ccccc3)sc2c1 [compound 19] | 383 | inhibited Bcl-2 | selective elimination of Sncs and no difference in the viabilities of control cells | +++ (compounds with a TI of >5 were labeled as +++) | 4.7 | –
O=C(Nc1ccc(S(=O)(=O)Nc2ncccn2)cc1)c1ccc(-c2ccccc2)cc1 [BRD-K20733377] | – | inhibited Bcl-2 | selective elimination of Sncs and no difference in the viabilities of control cells | – | 8.3 | 70.3
COc1ccc(C(=O)Nc2ccc3nc(SCC(=O)Nc4ccccc4F)sc3c2)cc1OC [compound 6] | 421 | inhibited Bcl-2 | selective elimination of Sncs and no difference in the viabilities of control cells | – | – | –
